Measured values published in US20210293785A1, “METHODS FOR PREDICTING STEROID RESPONSIVENESS” (FLORIDA STATE UNIVERSITY RESEARCH FOUNDATION, INC., priority 2020, published 2021).

Test system: keloid fibroblasts
Experiment: Cell proliferation assay of patient-derived fibroblasts with or without steroid
Format: cell-based, human
Description: As depicted in the flow diagram of FIG. 3, in some embodiments, the method of the invention involves culturing small (˜2 mm) tissue pieces using standard cell culture media and conditions to allow the outgrowth of cells, which takes 1-2 weeks. Depending upon the desired cell type or cell types, non-invasive sampling methods can be utilized, such an oral rinse. The outgrown cells are collected by trypsinization and re-seeded in fresh wells. Upon attachment, the cells are treated in triplicate with or without 10 micromolar Triamcinolone Acetonide (TA), a potent synthetic steroid used widely in the clinic, or varying concentrations of any other test steroid. The viable cells are harvested 4-7 days post-treatment (when the untreated cells start approaching confluency) and counted to determine the effects of the steroid on cell proliferation. The inventors have tested the method of the invention using fibroblast cells derived from 3 normal human skin biopsies as well as 20 surgically excised keloids from patients and exposing them to TA, as well as hydrocortisone, another commonly used steroid in the clinic. The results were remarkably similar to those observed for the response of keloid patients to steroids in the clinic, with 52% of the samples being sensitive (responsive) to the TA treatment, while 39% were non-responsive and 9% were hyperproliferative in TA (which predicts a worsening of condition upon steroid therapy). In summary, our screening test described herein can be used to determine patients' responses to steroids in less than 4 weeks, following which responsive patients can undergo steroid therapy, while others can avoid the potentially harmful steroids altogether and seek other therapies. Culture of keloid derived primary fibroblast cells. Surgically excised keloid and normal skin explants were obtained from patients under Florida State University IRB (2016.19175 and 2017.22173). The explants were cut into small pieces, digested with trypsin, washed with and cultured in DMEM containing 10% fetal bovine serum and Antibiotic/Antimycotic solution maintained at 37° C. and 5% CO2. Outgrowth of only primary dermal fibroblasts occurred under our culture conditions and these were recovered by trypsinization for use in experiments at low passage. The keloid fibroblasts are morphologically identical to commercially obtained normal primary Human Dermal Fibroblasts (HDF) (Cell Applications, Cat.#106-05a) used in our controls. Cell proliferation assays. To determine relative cell survival following radiation or steroid treatments, 7,500 fibroblasts were seeded per well in triplicate in 12-well plates. Following attachment, the cells were treated with steroids or irradiated using a X-Rad 320 irradiator. Surviving fibroblasts were counted on a Coulter counter 7 days post-treatment.

[1] = fibroblasts from 3 normal human skin biopsies and 20 surgically excised keloids, 10 micromolar TA, cells counted 4-7 days post-treatment
[2] = keloid explants and fibroblasts, 10 μM TA for a week

For `CC1(C)O[C@@H]2C[C@H]3[C@@H]4CCC5=CC(=O)C=C[C@]5(C)[C@@]4(F)[C@@H](O)C[C@]3(C)[C@]2(C(=O)CO)O1` [TA, Triamcinolone Acetonide], the “samples hyperproliferative in TA” value [1] was 9%, the “samples non-responsive to TA” value [1] was 39% and the “samples sensitive (responsive) to the TA treatment” value [1] was 52%. For the same compound, the samples with hyperproliferation [2] was 10%, the “samples with modest reduction in proliferation (steroid sensitive)” value [2] was 50% and the “samples with no significant effects on proliferation (steroid insensitive)” value [2] was 40%.
